Experimental data published in ChEMBL document CHEMBL3507680, “University of Dundee, Gates Library screen for HepG2 cell viability”.

Assay: Human HepG2 cell viability assay in 384 well format
Format: toxicity, cell-based
Design: dose 125 nL, time 70.5 hour; concentration not given beside the values
Details: HepG2 cells, read-out: Inhibition

Compared with `COC[C@]12COC[C@H]1CN(C(=O)c1ccc(F)cc1C)C2`, `Cn1ccc2ccc(C(=O)N3CC[C@@]4(O)CCCC[C@H]4C3)cc21` is higher in cytotoxicity at 70.5 h: 0.0363% for the first, 7.95% for the second.

Compared with `CNC(=O)N1CCC(NC(=O)c2cnn(C)c2)CC1`, `O=C(CCNc1ccccc1)NC1CCN(C(=O)C2CCCCC2)CC1` is higher in cytotoxicity at 70.5 h: -11.2% for the first, -5.78% for the second.

Going from `CC(C)NC(=O)Nc1ccc(CS(C)(=O)=O)cc1` to `CN(C)S(=O)(=O)c1ccc(CNc2ccc(Cl)cn2)cc1`, the cytotoxicity at 70.5 h rises from -0.657% to 0.742%.

Compared with `Cn1ccc(CNC(=O)N2CCCC3(C2)OCCO3)c1`, `CC(=O)NCC(=O)N1CCC2(CC1)CN(c1cccnc1)C(=O)CO2` is lower in cytotoxicity at 70.5 h: 0.239% for the first, -13.6% for the second.

Going from `CCc1nc(C)c(-c2nccn2CC2CCCCO2)[nH]1` (stereo not given) to `CCc1noc(C)c1C(=O)Nc1cnn(CC(=O)NC2CCCC2)c1`, the cytotoxicity at 70.5 h rises from -10.5% to -1.44%.

First: COc1ccc2[nH]cc(C(=O)CNc3nccs3)c2c1
Second: COc1cccc(C(CO)NC(=O)Cc2cccc(C)c2)c1 (stereo not given)
The cytotoxicity at 70.5 h of the first is higher: 14.4% for the first, -4.94% for the second.

Going from `Cc1noc(C)c1CN1CCO[C@H]2CN(C3CCOCC3)C[C@H]21` to `Cc1noc(C)c1CN1CCOCC12CCN(c1nccs1)CC2`, the cytotoxicity at 70.5 h falls from 21.3% to -8.54%.

First: CCc1nccn1-c1nccnc1C1CCN(C(=O)COC)CC1
Second: CC(C)(C)C(=O)N1CCC(c2nc(O)cc(-c3ccccn3)n2)CC1
The cytotoxicity at 70.5 h of the first is lower: 14.8% for the first, 16% for the second.

First: CC(C)Nc1nc2c(s1)C(=O)CN(C)C2
Second: Cc1cc(C)n(CC2CCCN2CC(=O)Nc2nnc(C)s2)n1 (stereo not given)
The cytotoxicity at 70.5 h of the first is higher: 4.07% for the first, 0.949% for the second.

First: COc1cc(S(=O)(=O)Nc2cn[nH]c2)ccc1Br
Second: CCOc1ncccc1CNS(=O)(=O)c1ccc2c(c1)CCCC(=O)N2
The cytotoxicity at 70.5 h of the first is lower: -12.7% for the first, -4.49% for the second.

First: O=C(C[C@@H]1COC[C@H]2CN(C3CCCC3)C[C@@H]12)NCc1cccnc1
Second: CCOCc1ccccc1NC(=O)NC1CCN(C2CCCC2)C1 (stereo not given)
The cytotoxicity at 70.5 h of the first is lower: -8.82% for the first, -6.21% for the second.

Compared with `COCc1cccc(CNC(=O)CN2CCCC2c2noc(C)n2)c1` (stereo not given), `CCN1CC(C(=O)NCc2ccc3c(c2)nc(C)n3C)CCC1=O` (stereo not given) is lower in cytotoxicity at 70.5 h: -13.1% for the first, -13.6% for the second.

Going from `CN(C)S(=O)(=O)NC1CC(=O)N(c2ccccc2Cl)C1` (stereo not given) to `O=S(=O)(Nc1c(F)cccc1N1CCCC1)c1cncc(F)c1`, the cytotoxicity at 70.5 h rises from -17.3% to -5.83%.

Compared with `O=C(c1ccco1)N1C[C@@H]2CN(c3ccccn3)C[C@@H]2C1`, `c1ccc(N2CCC3(CCCN(c4ncccn4)C3)C2)nc1` (stereo not given) is higher in cytotoxicity at 70.5 h: -0.814% for the first, 2.93% for the second.

Going from `Cc1nn(C)c(Cl)c1C1CCCN1CC(=O)N1CCCCC1` (stereo not given) to `CNC(=O)CCN1CCCCCC1c1ccc(C)o1` (stereo not given), the cytotoxicity at 70.5 h falls from 26.9% to 13.3%.

First: CC(C)(N)c1cn([C@@H]2c3ccccc3C3(CCNCC3)[C@H]2O)nn1
Second: COc1ccccc1C1CC(=O)Nc2c1c(=O)[nH]n2C1CCCC1 (stereo not given)
The cytotoxicity at 70.5 h of the first is higher: -4.25% for the first, -11.5% for the second.

Going from `Cc1nnc(SCCNC(=O)Cn2cnc3ccccc3c2=O)s1` to `CCc1ccc2ncn(Cc3ncc[nH]3)c(=O)c2c1`, the cytotoxicity at 70.5 h falls from -4.19% to -18.6%.

First: COCCN1CCN(CCS(C)(=O)=O)CC1C (stereo not given)
Second: Cc1cc(S(C)(=O)=O)c(C)c(S(=O)(=O)N2CCN(C)CC2)c1
The cytotoxicity at 70.5 h of the first is lower: 8.39% for the first, 32.6% for the second.

Going from `Cc1cnn(-c2ccc(C(=O)N3CCN(C)CC3C)cc2)c1` (stereo not given) to `Cc1nn(Cc2ccc(C(=O)NC3CCS(=O)(=O)C3)cc2)c(C)c1Br` (stereo not given), the cytotoxicity at 70.5 h rises from -3.9% to 3.3%.

Going from `CC(C)(C(=O)NCC(=O)NCc1ccccc1)c1ccccc1F` to `COCCn1nc(C(=O)N(C)Cc2ccc3ccccc3c2)ccc1=O`, the cytotoxicity at 70.5 h falls from 3.35% to -0.954%.

Going from `O=C(N[C@@H]1CN(Cc2cccs2)[C@@H]2CCCO[C@@H]21)c1cscn1` to `CO[C@@H]1CC[C@H]2[C@H]1OCCN2C(=O)c1ccco1`, the cytotoxicity at 70.5 h rises from -9.16% to -1.75%.

Going from `Cc1ccc2cc(C(=O)N3CCN(S(C)(=O)=O)CC3)[nH]c2c1` to `Cc1cccc(S(=O)(=O)N2C[C@@H]3C[C@@H](c4nc(C)no4)O[C@@H]3C2)c1`, the cytotoxicity at 70.5 h falls from 12.7% to -3.34%.

First: O=C(Nc1ccccc1)C1CN(CC2CCOCC2)CC12CCOCC2 (stereo not given)
Second: CN(C(=O)C1CCOCC1)[C@@H]1CCC[C@@H](N2CCOCC2)[C@@H]1O
The cytotoxicity at 70.5 h of the first is higher: 9.8% for the first, -5.89% for the second.

Going from `COCC(=O)N1CCCN(Cc2cc(C(C)C)no2)CC1` to `COc1ccc2c(CN3CCCN(Cc4ccncc4)CC3)n[nH]c2c1`, the cytotoxicity at 70.5 h falls from 12.3% to -1.17%.

Going from `CC(C)=CCCC1(C)C=Cc2c(cc(C)n(CCC(=O)O)c2=O)O1` (stereo not given) to `CCOc1ccc(C(=O)N(Cc2cnn(C)c2)C(C)C)cc1OCC`, the cytotoxicity at 70.5 h falls from 4.03% to -3.25%.

Compared with `CCOc1cc(CNC(=O)C(C#N)c2nc(C)cs2)ccc1OC(F)F` (stereo not given), `COc1ccc(F)cc1CSCC(=O)N(C)CCC#N` is higher in cytotoxicity at 70.5 h: -0.465% for the first, 0.901% for the second.

Compared with `CC(c1nc(C2CC2)no1)N1CCN(CCn2ccccc2=O)CC1` (stereo not given), `CCCN1CCC(c2nc3ccc(C)cn3n2)CC1` is lower in cytotoxicity at 70.5 h: -4.93% for the first, -6.41% for the second.

Compared with `CC(Cc1ccco1)NC(=O)NCc1ncnn1C` (stereo not given), `Cc1nc2n(n1)CC(NCC(=O)N(C)Cc1cccs1)CC2` (stereo not given) is lower in cytotoxicity at 70.5 h: 3.51% for the first, 2.31% for the second.

Going from `Cc1nc(O)c2nnn(C[C@H]3CCCN3C(=O)c3ccccc3C)c2n1` to `CCc1csc(C2CCCN(C(=O)c3ccc4[nH]nnc4c3)C2)n1` (stereo not given), the cytotoxicity at 70.5 h falls from 11.5% to -0.976%.

Compared with `c1ccc(N2CCOC(Cc3cccnc3)C2)cc1` (stereo not given), `Cn1cc(CN2CCCC3(CCN(c4cccnc4)C3=O)C2)cn1` (stereo not given) is higher in cytotoxicity at 70.5 h: -7.14% for the first, 20% for the second.

First: CSC1(CNC(=O)NCc2sccc2C)CCOCC1
Second: Cc1ncsc1CN1CCOC(C)(C(N)=O)C1 (stereo not given)
The cytotoxicity at 70.5 h of the first is higher: 2.45% for the first, -1.13% for the second.

Going from `CCNc1ncc(C2CC(=O)Nc3c2cnn3Cc2ccncc2)cn1` (stereo not given) to `CCn1ccnc1CNc1nccc(-c2cn(C)nc2C)n1`, the cytotoxicity at 70.5 h falls from 5.87% to -2.79%.

Compared with `O=C(NCc1cnc2n1CCN(Cc1ccoc1)C2)c1ccno1`, `O=C(c1cncc(NCC2COc3ccccc3C2)n1)N1CCOCC1` (stereo not given) is lower in cytotoxicity at 70.5 h: -0.405% for the first, -7.07% for the second.

First: O=C(CC(F)(F)F)N1CCC2(CCCN(c3nncs3)C2)C1 (stereo not given)
Second: O=C(Cn1cc(-n2cccc2)cn1)NCC(F)(F)F
The cytotoxicity at 70.5 h of the first is higher: -3.95% for the first, -12.8% for the second.

First: COc1ccccc1CCc1nc(CC2CCN(C)CC2)no1
Second: CCCc1cnc(C)nc1N1CCC(Cn2cc(CN(C)C)nn2)CC1
The cytotoxicity at 70.5 h of the first is higher: -2.87% for the first, -6.13% for the second.

First: CC1(c2ncc(CN3CCN(c4ncccn4)CC3)cn2)CCCCO1 (stereo not given)
Second: CNc1ncc(CN(C)C2CCN(C(C)C)CC2)cn1
The cytotoxicity at 70.5 h of the first is lower: -9.22% for the first, -3.89% for the second.

First: O=C(NC1CC1)[C@@H]1CCO[C@@H]2CCN(CC3CCC3)C[C@H]21
Second: O=S(=O)(C1CC1)N1CC[C@@H](OCC2CC2)[C@@H]1Cc1ccncc1
The cytotoxicity at 70.5 h of the first is higher: -2.8% for the first, -4.77% for the second.

Going from `Cc1cccc(C(C(=O)N(C)Cc2cc(C)no2)N(C)C)c1` (stereo not given) to `CNC(=O)c1ccc(C2CN(CC(=O)N(C)C)CCO2)nc1` (stereo not given), the cytotoxicity at 70.5 h rises from -7.53% to -5.57%.

Going from `COc1cc2c(cc1C1CC(=O)NCc3nc(N(C)C)sc31)CCC2` (stereo not given) to `CN(C)C(=O)C1CCN(Cc2csc(C(C)(C)C)n2)CC1`, the cytotoxicity at 70.5 h rises from 0.498% to 18%.

Going from `NC(=O)COc1cccc(C(=O)N2CCCC(n3cccn3)C2)c1` (stereo not given) to `CCc1nn(C)c(Cl)c1CN1C[C@H](NC(=O)CCO)[C@@H](C(C)C)C1`, the cytotoxicity at 70.5 h falls from 28.9% to -5.11%.
